Laboratory results reported in US20240366546A1, “ANTI-HELICOBACTER PYLORI DERIVATIVE CONTAINING DIHYDROSTILBENE PARENT NUCLEUS AND PREPARATION METHOD AND APPLICATION THEREOF” (NANJING UNIVERSITY OF CHINESE MEDICINE, priority 2024, published 2024).
In brackets after ≈: the same amount, converted by molar mass.

How the values were obtained:
Type in all cases: cell-based
[1] = tested on: Helicobacter pylori strain Hp26695; experiment: Determination of MIC, broth microdilution, strain Hp26695; conditions: 72 hours of culture, read-out: Minimum inhibitory concentration against helicobacter pylori Hp26695
Procedure: (§1) Anti-Helicobacter pylori activity of each compound is evaluated by a broth microdilution method in an activity experiment, and metronidazole, levofloxacin, clarithromycin and vancomycin used in clinic are selected as positive control drugs.
(§2) Helicobacter pylori strains HpG27, Hp159, Hp129 and Hp26695 provided by Professor Hongkai Bi of Nanjing Medical University. Culture mediums and main reagents: Colombian culture mediums, selective antibiotics (metronidazole, levofloxacin and clarithromycin), serum, and the like.
(§3) The strains were taken out of a refrigerator at −80° C. and placed at room temperature, 200 L of standard strains were accurately sucked, transferred to a solid culture medium, and spread with an L-shaped glass rod, a culture dish loaded with the strains was put into a culture bag, then an AnaeroPack was put into the culture bag, and the culture bag was quickly sealed and then put into a constant temperature incubator at 37° C. to culture for 72 hours. After the end of culture, each strain was identified first, then a lawn on the solid culture medium was scraped off, and the lawn was transferred into 50 mL of liquid culture medium to serve as an original bacterial solution.
(§4) • (1) Sample solutions of the compounds 1 to 9 obtained by separation and purification above were prepared according to a concentration of 1 mg/mL. • (2) In preparation of an MIC plate, a first well was added with 176 μL of culture medium and then added with 3.2 μL of antibacterial drug, and dilution was carried out by multiple proportions to a 7th well; and an 8th well was not added with the drug, but was reserved with 90 μL of culture medium to serve as a control with bacteria but no drug. • (3) In preparation of a bacterial solution, Helicobacter pylori growing at a logarithmic phase on a solid plate was made into a bacterial suspension with a BHI culture medium, an OD600 value of concentration of the bacterial suspension was adjusted to be 0.3 (1×10^8 CFU/mL), and the bacterial suspension was diluted by 10 times to reach 1×10^7 CFU/mL for later use. • (4) In inoculation, 10 μL of bacterial solution was added into the 1st to 8th wells (a concentration of the bacterial solution in each well was about 1.0×10^6 CFU/mL). Results were judged after 72 hours of culture. […] The test was only meaningful when the bacteria in the 8th well of the positive control well (without antibiotics) grew obviously. When there was a single drift in a microdilution method, the highest drug concentration capable of inhibiting the growth of bacteria should be recorded. If there were many drifts, the results should not be reported, and the test should be repeated.

[2] = tested on: Helicobacter pylori strain Hp159; experiment: Determination of MIC, broth microdilution, strain Hp159; conditions: 72 hours of culture, (R) beside control drug values, read-out: Minimum inhibitory concentration against helicobacter pylori Hp159
Procedure: as §1, §2, §3, §4

[3] = tested on: Helicobacter pylori strain HpG27; experiment: Determination of MIC, broth microdilution, strain HpG27; conditions: 72 hours of culture, read-out: Minimum inhibitory concentration against helicobacter pylori HpG27
Procedure: as §1, §2, §3, §4

[4] = tested on: Helicobacter pylori strain Hp129; experiment: Determination of MIC, broth microdilution, strain Hp129; conditions: 72 hours of culture, (R) beside control drug values, read-out: Minimum inhibitory concentration against helicobacter pylori Hp129
Procedure: as §1, §2, §3, §4

[5] = tested on: drug-resistant and sensitive Helicobacter pylori; experiment: Determination of MIC, broth microdilution, summary over strains; conditions: two kinds of drug-resistant and sensitive Helicobacter pylori; range over strains
Procedure: as §1, §2, §3, §4

Cc1ncc([N+](=O)[O-])n1CCO [MTZ, metronidazole, reference compound]
MIC [1]: 1 µg/mL (≈ 5.84 µM)
MIC [2]: 16 µg/mL (≈ 93.5 µM)
MIC [3]: 2 µg/mL (≈ 11.7 µM)
MIC [4]: 32 µg/mL (≈ 187 µM)

CC(=O)Oc1cc(O)c(CC=C(C)C)c(CCc2ccc(O)cc2)c1CC=C(C)C [Compound 7, uralensisol M]
MIC [1]: 8 µg/mL (≈ 19.6 µM)
MIC [2]: 8 µg/mL (≈ 19.6 µM)
MIC [5]: 4 to 8 µg/mL (≈ 9.79 to 19.6 µM)
MIC [3]: 8 µg/mL (≈ 19.6 µM)
MIC [4]: 8 µg/mL (≈ 19.6 µM)

CC(=O)Oc1cc(O)cc(CCc2ccc(O)c(CC=C(C)C)c2)c1CC=C(C)C [Compound 4, uralensisol J]
MIC [1]: > 16 µg/mL
MIC [2]: > 16 µg/mL
MIC [3]: > 16 µg/mL
MIC [4]: > 16 µg/mL

COc1cc(O)c(CC=C(C)C)c(CCc2ccc(O)cc2)c1 [Compound 3, uralensisol I]
MIC [1]: 4 µg/mL (≈ 12.8 µM)
MIC [2]: 8 µg/mL (≈ 25.6 µM)
MIC [5]: 4 to 8 µg/mL (≈ 12.8 to 25.6 µM)
MIC [3]: 4 µg/mL (≈ 12.8 µM)
MIC [4]: 8 µg/mL (≈ 25.6 µM)

C[C@H]1COc2c(N3CCN(C)CC3)c(F)cc3c(=O)c(C(=O)O)cn1c23 [LVX, levofloxacin, reference compound]
MIC [1]: 0.25 µg/mL (≈ 0.692 µM)
MIC [2]: 8 µg/mL (≈ 22.1 µM)
MIC [3]: 0.25 µg/mL (≈ 0.692 µM)
MIC [4]: 8 µg/mL (≈ 22.1 µM)

CC(C)=CCc1c(CCc2ccc(O)cc2)cc(O)cc1OC(=O)C(C)C [Compound 1]
MIC [1]: 8 µg/mL (≈ 21.7 µM)
MIC [2]: 8 µg/mL (≈ 21.7 µM)
MIC [5]: 4 to 8 µg/mL (≈ 10.9 to 21.7 µM)
MIC [3]: 8 µg/mL (≈ 21.7 µM)
MIC [4]: 8 µg/mL (≈ 21.7 µM)

COc1c(O)cc(CCc2cc(O)cc(OC(C)=O)c2CC=C(C)C)cc1CC=C(C)C [Compound 5, uralensisol K]
MIC [1]: > 16 µg/mL
MIC [2]: > 16 µg/mL
MIC [3]: > 16 µg/mL
MIC [4]: > 16 µg/mL

CC(C)=CCc1c(O)cc(O)c(CC=C(C)C)c1CCc1ccc(O)cc1 [Compound 6, uralensisol L]
MIC [1]: 8 µg/mL (≈ 21.8 µM)
MIC [2]: 8 µg/mL (≈ 21.8 µM)
MIC [5]: 4 to 8 µg/mL (≈ 10.9 to 21.8 µM)
MIC [3]: 4 µg/mL (≈ 10.9 µM)
MIC [4]: 8 µg/mL (≈ 21.8 µM)

O=Cc1c(O)cc(O)cc1CCc1ccc(O)cc1 [Compound 8, uralensisol N]
MIC [1]: > 16 µg/mL
MIC [2]: > 16 µg/mL
MIC [3]: > 16 µg/mL
MIC [4]: > 16 µg/mL

CC(C)=CCc1cc(CCc2cc(O)cc(O)c2CC=C(C)C)ccc1O [Compound 9, uralensisol 0]
MIC [1]: 8 µg/mL (≈ 21.8 µM)
MIC [2]: 8 µg/mL (≈ 21.8 µM)
MIC [5]: 4 to 8 µg/mL (≈ 10.9 to 21.8 µM)
MIC [3]: 8 µg/mL (≈ 21.8 µM)
MIC [4]: 8 µg/mL (≈ 21.8 µM)

CC[C@H]1OC(=O)[C@H](C)[C@@H](O[C@H]2C[C@@](C)(OC)[C@@H](O)[C@H](C)O2)[C@H](C)[C@@H](O[C@@H]2O[C@H](C)C[C@H](N(C)C)[C@H]2O)[C@](C)(OC)C[C@@H](C)C(=O)[C@H](C)[C@@H](O)[C@]1(C)O [CLR, clarithromycin, reference compound]
MIC [1]: 0.008 µg/mL (≈ 0.0107 µM)
MIC [2]: 2 µg/mL (≈ 2.67 µM)
MIC [3]: 0.008 µg/mL (≈ 0.0107 µM)
MIC [4]: 1 µg/mL (≈ 1.34 µM)

CCC(C)C(=O)Oc1cc(O)cc(CCc2ccc(O)cc2)c1CC=C(C)C (centres unmarked) [Compound 2]
MIC [1]: > 16 µg/mL
MIC [2]: > 16 µg/mL
MIC [3]: > 16 µg/mL
MIC [4]: > 16 µg/mL
